Experimental findings from ChEMBL document CHEMBL5727290, “6-(5-hydroxy-1H-pyrazol-1-yl)nicotinamide inhibitors of PHD” (2019) are described below.

This assay deals with Egl nine homolog 1 (Homo sapiens, UniProt Q9GZT9). The assay can be described thus: Inhibition Assay: The IC50 values for the PHD2 enzyme (residues 181-417) were determined by mixing increasing amounts of inhibitor with a fixed amount of enzyme (5 nM, final concentration) and Biotin labeled peptide (Biotin-Asp-Leu-Glu-Met-Leu-Ala-Pro-Tyr-Ile-Pro-Met-Asp-Asp-Asp-Phe-Gln-Leu, 1 uM final concentration) and 2-Oxyglutarate (2 uM final concentration) in 50 mM HEPES, 50 mM KCl, 0.5 mM TCEP, 2 uM FeCl2, 0.1 mg/ml BSA, at pH 7.3. The reaction was conducted by pre-incubating the enzyme in the presence of inhibitor for 60 min at room temperature. The activity of the free enzyme was measured by adding the peptide, the 2-Oxoglutarate (see above for final concentrations), and Ascorbic Acid (1 mM final concentration). The enzymatic activity was quenched after 60 min by adding an excess of a tight binding inhibitor to the assay mixture. The amount of product released was measured by using a LC/MS system (Agilent HPLC with Applied Biosystems API3000 Mass Spectrometer).
Chain of Egl nine homolog 1 (Q9GZT9 whole entry, the tested form may be a part): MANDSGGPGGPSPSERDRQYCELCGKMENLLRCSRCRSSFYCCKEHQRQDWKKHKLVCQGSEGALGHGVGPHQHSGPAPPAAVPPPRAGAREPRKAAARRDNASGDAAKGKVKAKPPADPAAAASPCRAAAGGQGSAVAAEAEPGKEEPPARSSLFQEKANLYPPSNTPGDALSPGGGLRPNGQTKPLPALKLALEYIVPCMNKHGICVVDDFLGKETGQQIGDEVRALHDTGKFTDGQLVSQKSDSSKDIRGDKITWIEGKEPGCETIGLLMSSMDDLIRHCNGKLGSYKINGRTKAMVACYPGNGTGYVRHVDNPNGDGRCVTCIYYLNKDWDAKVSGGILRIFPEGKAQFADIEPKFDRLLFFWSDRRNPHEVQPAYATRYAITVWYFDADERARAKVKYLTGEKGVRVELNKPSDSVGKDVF

Usually IC50 stands for the midpoint of a concentration-inhibition curve. In the case of `CCN1CCC(NC(=O)c2ccc(-n3ncc(-c4ccnc(OC)c4)c3O)nc2)CC1`, the IC50 is 0.0776 µM. Consider `CC(C)(C)NC(=O)c1ccc(-n2ncc(-c3cccnc3)c2O)nc1`, for which the IC50 was determined as 0.01 µM. For the compound `CN1CCC(NC(=O)c2ccc(-n3ncc(-c4ccc(C#N)cc4)c3O)nc2)CC1=O` (stereo unspecified), the IC50 is 0.129 µM.

`COc1cc(-c2cnn(-c3ccc(C(=O)NCCCN4CCCC4=O)cn3)c2O)ccn1`: the IC50 turned out to be 0.0513 µM.

Regarding `COc1cc(C#N)ccc1-c1cnn(-c2ccc(C(=O)NCCC3CCCO3)cn2)c1O` (stereo unspecified), the IC50 amounted to 0.0661 µM. The value for `COc1cc(-c2cnn(-c3ccc(C(=O)NCCCN4CCCC4)cn3)c2O)ccn1` was 0.0977 µM; that for `COCCNC(=O)c1cnc(-n2ncc(-c3ccc(C#N)cc3)c2O)cc1C` was 0.0977 µM.

For `COc1cc(-c2cnn(-c3ccc(C(=O)NCCCn4ccnc4)cn3)c2O)ccn1`, the IC50 came out at 0.0372 µM. The figure for `COc1cc(-c2cnn(-c3ccc(C(=O)NCCC4CCCN4C)cn3)c2O)ccn1` (stereo unspecified) is 0.126 µM; for `CCN1CCC(CN(C)C(=O)c2ccc(-n3ncc(-c4ccc(C#N)cc4)c3O)nc2)C1` (stereo unspecified) it is 0.0562 µM. The figure for `COc1cc(-c2cnn(-c3ccc(C(=O)NCCCN4CCCCC4)cn3)c2O)ccn1` is 0.0871 µM.
